# Experimental data reported in patent publication US8920822B2, “Skin beautifier” (Megmilk Snow Brand Co., Ltd., priority 2004, dated 2014).
# What was measured:
# [1] = system: CD-1 (ICR)-nu/nu mice; assay: Transepidermal water loss in the tail skin of nude mice after 4 weeks of oral feeding (Tewameter); assay type: in vivo, mouse; details: for Increase Rate of Transepidermal Water Loss: value at end of feeding with start = 100; for increase of the transepidermal water loss: after 4-week administration
# Method: (§1) Effects of the skin beautifier according to the present invention were investigated by an animal test using nude mice.
# (§2) A sphingomyelin raw material (Phospholac 500; manufactured by NZMP) containing 10% of sphingomyelins was dissolved in deionized water as shown in Table 1. The solution was heated to 50° C. and then mixed under stirring with an ultradisperser (ULTRA-TURRAX T-25; manufactured by IKA Japan) at 9500 rpm for 20 minutes to prepare Test Feeds 1 to 3.
# (§3) Five-week old CD-1 (ICR)-nu/nu mice were divided into the following 4 test groups (10 mice in each group), namely, (Group A) a group receiving 10 g of physiological saline per kg of mouse body weight, (Group B) a group receiving 10 g of the Test Feed 1 per kg of mouse body weight, (Group C) a group receiving 10 g of the Test Feed 2 per kg of mouse body weight, and (Group D) a group receiving 10 g of the Test Feed 3 per kg of mouse body weight. Mice in all the groups were fed by orally administering the feed once daily by gavage feeding for 4 weeks. Moisture contents and transepidermal water losses in the tail skin of each mouse were measured at the start and the end of the feeding. Values at the end of the feeding (rates of increase) were calculated by assuming each of the values at the start of the feeding to be 100. The moisture contents of the skin and the transepidermal water losses were measured using Corneometer and Tewameter, respectively, which were manufactured by Courage+Khazaka.
# [2] = system: CD-1 (ICR)-nu/nu mice; assay: Moisture content of the tail skin of nude mice after 4 weeks of oral feeding (Corneometer); assay type: in vivo, mouse; details: for increase of the moisture content of the skin: end vs start of administration; for Increase Rate of Moisture: value at end of feeding with start = 100
# Method: as §1, §2, §3
# [3] = Group B, Test Feed 1, sphingomyelin 2 mg/kg orally once daily for 4 weeks
# [4] = Group C, Test Feed 2, sphingomyelin 5 mg/kg orally once daily for 4 weeks
# [5] = Group D, Test Feed 3, sphingomyelin 10 mg/kg orally once daily for 4 weeks
# [6] = oral administration, nude mice, covers moisture content and TEWL
substance,measurement,setting,value
sphingomyelin,Increase Rate of Transepidermal Water Loss,[1]; [3],152%
same,increase of the transepidermal water loss,"[1]; Group C, 5 mg/kg orally",about 1.4 times
same,Increase Rate of Transepidermal Water Loss,[1]; [4],137%
same,increase of the transepidermal water loss,"[1]; Group D, 10 mg/kg orally",about 1.4 times
same,Increase Rate of Transepidermal Water Loss,[1]; [5],140%
same,increase of the moisture content of the skin,"[2]; Group B (printed Group 13), 2 mg/kg orally",about 1.5 times
same,Increase Rate of Moisture,[2]; [3],155%
same,increase of the moisture content of the skin,"[2]; Group C, 5 mg/kg orally",about 2.5 times
same,Increase Rate of Moisture,[2]; [4],245%
same,increase of the moisture content of the skin,"[2]; Group D, 10 mg/kg orally",about 2.5 times
same,Increase Rate of Moisture,[2]; [5],253%
same,"dose at which the effects (skin moisture increased, transepidermal water loss decreased) were observed",[2]; [6],≥ 2 mg per kg of mouse body weight
same,"dose at which the effects (skin moisture increased, transepidermal water loss decreased) were significant",[2]; [6],≥ 5 mg per kg of mouse body weight
